Source: patent US20230151025A1, “SUBSTITUTED THIAZOLOPYRIDINES, SALTS THEREOF AND THEIR USE AS HERBICIDALLY ACTIVE SUBSTANCES” (Bayer Aktiengesellschaft, priority 2020, published 2023)

Assays:
Format in all cases: in vivo
[1] = system: Amaranthus retroflexus (AMARE); assay: Herbicidal post-emergence action (B), 1280 g/ha; details: rated visually after about 3 weeks vs untreated controls
How it was run: (§1)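 Post-emergence spray, one-leaf stage; WP/EC formulation, aqueous, 0.5% additive, 600 L/ha water. Sandy loam, greenhouse, doubly sown pots. Visual % rating vs untreated control at ~3 weeks (100% = dead).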

Poa annua (POAAN) [2] = assay: Herbicidal post-emergence action (B), 1280 g/ha; details: rated visually after about 3 weeks vs untreated controls
How it was run: as §1

Lolium rigidum (LOLRI) [3] = assay: Herbicidal post-emergence action (B), 1280 g/ha; details: one-leaf stage, rated after about 3 weeks vs untreated controls, 100% activity = the plants have died, 0% = like control plants
How it was run: as §1

[4] = system: Matricaria inodora (MATIN); assay: Herbicidal pre-emergence action (A), 1280 g/ha; details: visual grading after ca. 3 weeks vs untreated controls
How it was run: (§2)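 Seeds were sown in sandy loam pots (one mono- and one dicot weed per pot) and covered with soil; WP or EC formulations were applied to the soil surface as aqueous suspension/emulsion with 0.5% additive at 600 l water/ha. Damage was scored visually after ca. 3 weeks versus untreated controls (0% = control, 100% = dead).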

Poa annua (POAAN) [5] = assay: Herbicidal pre-emergence action (A), 1280 g/ha; details: visual grading after ca. 3 weeks vs untreated controls, 100% = plants have died off, 0% = as control plants
How it was run: as §2

[6] = system: Alopecurus myosuroides (ALOMY); assay: Herbicidal pre-emergence action (A), 1280 g/ha; details: visual grading after ca. 3 weeks vs untreated controls, 100% = plants have died off, 0% = as control plants
How it was run: as §2

Lolium rigidum (LOLRI) [7] = assay: Herbicidal pre-emergence action (A), 1280 g/ha; details: visual grading after ca. 3 weeks vs untreated controls, 100% = plants have died off, 0% = as control plants
How it was run: as §2

Setaria viridis (SETVI) [8] = assay: Herbicidal pre-emergence action (A), 1280 g/ha; details: visual grading after ca. 3 weeks vs untreated controls
How it was run: as §2

Stellaria media (STEME) [9] = assay: Herbicidal pre-emergence action (A), 1280 g/ha; details: visual grading after ca. 3 weeks vs untreated controls
How it was run: as §2

[10] = system: Echinochloa crus-galli (ECHCG); assay: Herbicidal post-emergence action (B), 1280 g/ha; details: rated visually after about 3 weeks vs untreated controls
How it was run: as §1

Veronica persica (VERPE) [11] = assay: Herbicidal post-emergence action (B), 1280 g/ha
How it was run: as §1

[12] = system: Alopecurus myosuroides (ALOMY); assay: Herbicidal post-emergence action (B), 1280 g/ha; details: rated visually after about 3 weeks vs untreated controls
How it was run: as §1

[13] = system: Abutilon theophrasti (ABUTH); assay: Herbicidal post-emergence action (B), 1280 g/ha; details: rated visually after about 3 weeks vs untreated controls
How it was run: as §1

Setaria viridis (SETVI) [14] = assay: Herbicidal post-emergence action (B), 1280 g/ha; details: rated visually after about 3 weeks vs untreated controls
How it was run: as §1

[15] = system: Kochia scoparia (KCHSC; Bassia scoparia); assay: Herbicidal post-emergence action (B), 1280 g/ha
How it was run: as §1

[16] = system: Matricaria inodora (MATIN); assay: Herbicidal pre-emergence action (C), 320 g/ha; details: ca. 3 weeks
Text: (§3) ABUTH: Abutilon theophrasti AGSTE: Agrostis tenuis ALOMY: Alopecurus myosuroides AMARE Amaranthus retroflexus DIGSA: Digitaria sanguinalis ECHCG: Echinochloa crus-galli KCHSC: Kochia scoparia LOLRI: Lolium rigidum MATIN: Matricaria inodora POAAN: Poa annua POLCO: Polygonum convolvulus SETVI: Setaria viridis STEME: Stellaria media VERPE: Veronica persica VIOTR: Viola tricolor
(§4) Seeds of mono- and dicotyledonous weed plants and crop plants were sown, in plastic or organic planting pots, in sandy loam and covered with soil. The compounds according to the invention, formulated in the form of wettable powders (WP) or as emulsifiable concentrates (EC), were applied to the surface of the covering soil as aqueous suspension or emulsion, with the addition of 0.5% of an additive, at an application rate of 600 l of water/ha (converted).
(§5) Following treatment, the pots were placed in a greenhouse and kept under optimum growth conditions for the test plants. The visual grading of the damage to the test plants was carried out after ca. 3 weeks in comparison to untreated controls (herbicidal effect in percent (%): 100% effect=plants have died off, 0% effect=as control plants).
(§6) Tables C1 to C13 below show the effects of selected compounds of the general formula (I) according to table 1 on various harmful plants and an application rate corresponding to 320 g/ha obtained by the experimental procedure mentioned above.

[17] = system: Amaranthus retroflexus (AMARE); assay: Herbicidal pre-emergence action (C), 320 g/ha; details: ca. 3 weeks
Text: as §3, §4, §5, §6

[18] = system: Echinochloa crus-galli (ECHCG); assay: Herbicidal pre-emergence action (C), 320 g/ha; details: ca. 3 weeks
Text: as §3, §4, §5, §6

Veronica persica (VERPE) [19] = assay: Herbicidal pre-emergence action (C), 320 g/ha; details: ca. 3 weeks
Text: as §3, §4, §5, §6

[20] = system: Alopecurus myosuroides (ALOMY); assay: Herbicidal pre-emergence action (C), 320 g/ha; details: ca. 3 weeks
Text: as §3, §4, §5, §6

Lolium rigidum (LOLRI) [21] = assay: Herbicidal pre-emergence action (C), 320 g/ha; details: ca. 3 weeks
Text: as §3, §4, §5, §6

Setaria viridis (SETVI) [22] = assay: Herbicidal pre-emergence action (C), 320 g/ha; details: ca. 3 weeks
Text: as §3, §4, §5, §6

[23] = system: Amaranthus retroflexus (AMARE); assay: Herbicidal pre-emergence action (A), 1280 g/ha; details: visual grading after ca. 3 weeks vs untreated controls
How it was run: as §2

[24] = system: Echinochloa crus-galli (ECHCG); assay: Herbicidal pre-emergence action (A), 1280 g/ha; details: visual grading after ca. 3 weeks vs untreated controls, 100% = plants have died off, 0% = as control plants
How it was run: as §2

Veronica persica (VERPE) [25] = assay: Herbicidal pre-emergence action (A), 1280 g/ha; details: visual grading after ca. 3 weeks vs untreated controls
How it was run: as §2

[26] = system: Abutilon theophrasti (ABUTH); assay: Herbicidal pre-emergence action (A), 1280 g/ha; details: visual grading after ca. 3 weeks vs untreated controls, 100% = plants have died off, 0% = as control plants
How it was run: as §2

[27] = system: Kochia scoparia (KCHSC; Bassia scoparia); assay: Herbicidal pre-emergence action (A), 1280 g/ha; details: visual grading after ca. 3 weeks vs untreated controls
How it was run: as §2

Stellaria media (STEME) [28] = assay: Herbicidal post-emergence action (B), 1280 g/ha
How it was run: as §1

[29] = system: Amaranthus retroflexus (AMARE); assay: Herbicidal post-emergence action (D), 320 g/ha; details: ca. 3 weeks
Text: as §3
(§7) Seeds of mono- and dicotyledonous weed plants and crop plants were sown, in plastic or organic planting pots, in sandy loam, covered with soil and grown in a greenhouse under controlled growth conditions. 2 to 3 weeks after sowing, the test plants were sprayed in the single-leaf stage. The compounds according to the invention, formulated in form of wettable powders (WP) or as emulsifiable concentrates (EC), were sprayed onto the green plant parts as aqueous suspension or emulsion, with the addition of 0.5% of an additive, at an application rate of 600 l of water/ha (converted). The test plants were placed in the greenhouse for ca. 3 weeks under optimum growth conditions, and then the effect of the preparations was assessed visually in comparison with untreated controls (herbicidal effect in percent (%): 100% effect=plants have died off, 0% effect=as control plants).
(§8) Tables D1 to D13 below show the effects of selected compounds of the general formula (I) according to table 1 on various harmful plants and an application rate corresponding to 320 g/ha obtained by the experimental procedure mentioned above.

[30] = system: Echinochloa crus-galli (ECHCG); assay: Herbicidal post-emergence action (D), 320 g/ha; details: ca. 3 weeks
Text: as §3, §7, §8

Veronica persica (VERPE) [31] = assay: Herbicidal post-emergence action (D), 320 g/ha; details: ca. 3 weeks
Text: as §3, §7, §8

Setaria viridis (SETVI) [32] = assay: Herbicidal post-emergence action (D), 320 g/ha; details: ca. 3 weeks
Text: as §3, §7, §8

[33] = system: Digitaria sanguinalis (DIGSA); assay: Herbicidal post-emergence action (B), 1280 g/ha; details: rated visually after about 3 weeks vs untreated controls
How it was run: as §1

[34] = system: Digitaria sanguinalis (DIGSA); assay: Herbicidal pre-emergence action (A), 1280 g/ha; details: visual grading after ca. 3 weeks vs untreated controls, 100% = plants have died off, 0% = as control plants
How it was run: as §2

Compound	herbicidal activity AMARE [1] [%]	herbicidal activity POAAN (Poa annua (POAAN) [2]) [%]	LOLRI, activity rated visually (%) (Lolium rigidum (LOLRI) [3])	herbicidal effect MATIN [4] [%]	POAAN, herbicidal effect in percent (%) (Poa annua (POAAN) [5])	ALOMY, herbicidal effect in percent (%) [6] [%]	LOLRI, herbicidal effect in percent (%) (Lolium rigidum (LOLRI) [7])	herbicidal effect SETVI (Setaria viridis (SETVI) [8]) [%]	herbicidal effect STEME (Stellaria media (STEME) [9]) [%]	herbicidal activity ECHCG [10] [%]	herbicidal effect VERPE (Veronica persica (VERPE) [11]) [%]	herbicidal activity ALOMY [12] [%]	herbicidal effect KCHSC [15] [%]	herbicidal effect AMARE [17] [%]	herbicidal effect ALOMY [20] [%]	herbicidal effect SETVI (Setaria viridis (SETVI) [22]) [%]	herbicidal effect AMARE [23] [%]	ECHCG, herbicidal effect in percent (%) [24] [%]	herbicidal effect VERPE (Veronica persica (VERPE) [25]) [%]	herbicidal effect KCHSC [27] [%]	other results
Cc1cscc1-c1ccc2scnc2n1 [Example I-134]	90	90	90	90	90	90	100	100	100	–	–	–	–	–	–	–	–	–	–	–	–
Fc1cccc(-c2nc3ncsc3cc2Cl)c1F [Example I-114]	90	–	–	90	100	100	100	100	90	90	90	90	90	90	90	90	90	100	100	90	herbicidal activity ABUTH [13]: 90%; herbicidal activity SETVI (Setaria viridis (SETVI) [14]): 90%; herbicidal effect MATIN [16]: 80%; herbicidal effect ECHCG [18]: 100%; herbicidal effect VERPE (Veronica persica (VERPE) [19]): 80%; herbicidal effect LOLRI (Lolium rigidum (LOLRI) [21]): 100%; ABUTH, herbicidal effect in percent (%) [26]: 90%
Clc1cc2scnc2nc1-c1ccsc1Cl [Example I-190]	–	100	–	100	100	100	100	100	90	100	100	100	90	90	100	100	90	100	90	90	herbicidal effect STEME (Stellaria media (STEME) [28]): 90%; herbicidal effect MATIN [16]: 80%; herbicidal effect ECHCG [18]: 100%; herbicidal effect LOLRI (Lolium rigidum (LOLRI) [21]): 100%; ABUTH, herbicidal effect in percent (%) [26]: 90%; herbicidal effect AMARE [29]: 80%; herbicidal effect ECHCG [30]: 90%; herbicidal effect VERPE (Veronica persica (VERPE) [31]): 80%; herbicidal effect SETVI (Setaria viridis (SETVI) [32]): 80%
Fc1cccc(-c2nc3ncsc3cc2Cl)c1 [Example I-068]	90	100	90	–	100	100	100	100	100	–	100	90	100	90	100	100	90	100	90	100	herbicidal activity ABUTH [13]: 90%; herbicidal effect STEME (Stellaria media (STEME) [28]): 90%; herbicidal activity DIGSA [33]: 100%; herbicidal effect VERPE (Veronica persica (VERPE) [19]): 80%; DIGSA, herbicidal effect in percent (%) [34]: 100%; herbicidal effect AMARE [29]: 90%
